Here are results for one molecule from patent publication US20230090683A1, “ASPACYTARABINE PHARMACEUTICAL COMPOSITIONS AND USES THEREOF” (Biosight Ltd., priority 2020, published 2023).

Holding throughout (format): physicochemical
A short description of series [1]: Solubility and stability of aspacytarabine free base and acid salt in aqueous media. The text has this:
Thus, there is an unmet need for a stable and highly concentrated solutions and/or high dosage composition comprising aspacytarabine.

The nature of series [2]: Solubility of aspacytarabine in different solubilizers/stabilizers (Table 1, FIG. 1). The settings on record: thermodynamic from solid, read-out: Conc (solubility of aspacytarabine); for solubility at 24 h: after 24 hours, room temperature. The method, then:
FIG. 1 depicts solubility (mg/ml) of aspacytarabine with (i) Tween 20, 1% (non-linear polymer); (ii) PEG 400 (neat); (iii) an aqueous solution including 1% w/w poloxamer; (iv) an aqueous solution including 2% w/w poloxamer; and (v) an aqueous solution including 1% w/w poloxamer and 5% w/w PVP, where “P188” is poloxamer 188 and “PVP” is polyvinylpyrrolidone. The solubility was measured after 24 hours in room temperature at pH 4.5.
Aspacytarabine or its hydrochloride salt was stirred with various ingredients in various conditions (separate experiment for each component/condition) in order to prepare compositions thereof. […] Among components tested were organic solvents (e.g. glycerol, ethanol, polyethylene glycol (PEG, e.g. PEG 400), dimethylacetamide and propylene glycol) and polymers (e.g. Polyoxyethylated 12-hydroxystearic acid, Polyethylene glycol, sorbitan monolaurate, polyvinylpyrrolidone (PVP), triblock copolymer of polyethylene/propylene oxide (poloxamer) and cyclodextrin and/or derivatives thereof). […] See comparative results in FIG. 1 and Table 1:
Compositions 1, 2a-2d, 3 as described in Example 2 were dissolved in an aqueous solution at room temperature. Composition 4 is aspacytarabine in neat PEG 400.

Series [3] is described as follows: Solubility and stability of aspacytarabine hydrochloride salt in 3% aqueous solutions of stabilizers/solubilizers after 24 hours (Table 2). Here is the method: In another study, aspacytarabine hydrochloride salt was added to 3% aqueous solution of different stabilizers/solubilizers (See Table 2) at pH˜5.
[4] abbreviates: hydrochloride salt in 3% aqueous PVP 10 kDa + PEG 300, pH~5, room temperature.
[5] abbreviates: hydrochloride salt in 3% aqueous Poloxamer 188 + PEG 300, pH~5, room temperature.
Setting [6] is: hydrochloride salt in 3% aqueous Poloxamer 188, pH~5, room temperature.
The mark [7] stands for this setting: hydrochloride salt, control without stabilizers and/or solubilizer, pH~5, room temperature.

Values after ≈ are worked out from the molar mass of the structure shown. Where two headings read alike, the source gives them in different places.

One may read the solubility as the dissolved amount per volume that the medium holds. Turning to `N[C@@H](CC(=O)Nc1ccn([C@@H]2O[C@H](CO)[C@@H](O)[C@@H]2O)c(=O)n1)C(=O)O` [aspacytarabine, (S)-2-amino-4-((1-((2R,3S,4S,5R)-3,4-dihydroxy-5-(hydroxymethyl)tetrahydrofuran-2-yl)-2-oxo-1,2-dihydropyrimidin-4-yl)amino)-4-oxobutanoic acid], the “solubility in aqueous media” value in series [1] is “low solubility”. In addition, the solubility at 24 h in series [2] (1% Tween 20, aqueous with cosolvent or surfactant or cyclodextrin, solubilizer/stabilizer Tween 20 (1%, non-linear polymer), pH 4.5) was determined as 14.3 mg/mL (≈ 40 mM); in series [2] (aqueous solution with 1% w/w poloxamer 188, aqueous with cosolvent or surfactant or cyclodextrin, solubilizer/stabilizer Poloxamer 1% w/w aqueous solution, pH 4.5) it was 95.3 mg/mL (≈ 266 mM); in series [2] (aqueous solution with 1% w/w poloxamer 188 and 5% w/w PVP, aqueous with cosolvent or surfactant or cyclodextrin, solubilizer/stabilizer Poloxamer 1% + 5% PVP aqueous solution, pH 4.5), 90.9 mg/mL; in series [2] (aqueous solution with 2% w/w poloxamer 188, aqueous with cosolvent or surfactant or cyclodextrin, solubilizer/stabilizer Poloxamer 2% w/w aqueous solution, pH 4.5), 94.9 mg/mL (≈ 265 mM); in series [2] (neat PEG 400, pH 4.5, organic solvent or mixture, solubilizer/stabilizer PEG400 (neat)), 50.5 mg/mL (≈ 141 mM). The solubility was 17.8 mg/mL (≈ 49.7 mM) in series [2] (Kolliphor ELP as solubilizer/stabilizer, aqueous with cosolvent or surfactant or cyclodextrin, solubilizer/stabilizer Kolliphor ELP) and 16.1 mg/mL (≈ 45.1 mM) in series [2] (Solutol HS15 as solubilizer/stabilizer, aqueous with cosolvent or surfactant or cyclodextrin, solubilizer/stabilizer Solutol HS15). The “Concentration after 24 h” value in series [3] (setting [4]) was determined as 91600 ± 8400 µg/mL; in series [3] (setting [5]), 80600 ± 2200 µg/mL; in series [3] (setting [6]) it was 81800 ± 3200 µg/mL; in series [3] (setting [7]) it was 17200 ± 400 µg/mL. The Initial appearance entry in series [3] (setting [4]), in series [3] (setting [5]), in series [3] (setting [6]) and in series [3] (setting [7]) was “Clear” in each case. In addition, the Initial concentration in series [3] (setting [4]) came out at 87.1 ± 0.0 mg/mL; in series [3] (setting [5]) it was 87.3 ± 0.4 mg/mL; in series [3] (setting [6]), 87.3 ± 0.2 mg/mL; in series [3] (setting [7]), 86.6 ± 1.1 mg/mL. Besides, the “Appearance after 24 h” value in series [3] (setting [5]) and in series [3] (setting [6]) was “Clear” each time.
